Read-outs that look alike come from different tables or passages of the source.

One assay concerns P falciparum strain 3D7. The assay can be described thus: microbe, parasite or virus in culture. It counts as cell-based, Plasmodium falciparum. The protocol:
P falciparum strain 3D7 (wild-type, WT) was obtained through MR4 as part of the BEi Resources Repository, NIAID, NIH (www.mr4.org). AP falciparum strain containing increased levels of MEP pathway metabolites, had]
(MRA-1257), and its isogenic compliment, had]+ Pfl-Iadl-GFP (MRA-1258), were generated in strain 3D7, as reported (Guggisberg et al.). Parasites were cultured in a 2% suspension of human erythrocytes and RPMI 1640 (Sigma) medium supplemented with 27 mM sodium bicarbonate, 11 mM glucose, 5 mM HEPES, I mM sodium pyruvate, 0.37 mM hypoxanthine, 0.01 mM thymidine, 10 μg/mL gentamicin, and 0.5% Albumax (Gibco) at 37° C., 5% 02/5% CO2/90% N2 atmosphere.

Assay [1] deals with T1, P. falciparum DXR (Plasmodium falciparum, UniProt Q8IKG4).
T1 construct: His6 (N); made in house; host or cells: Escherichia coli Rosetta2(DE3)
T1 sequence (Q8IKG4 73-488): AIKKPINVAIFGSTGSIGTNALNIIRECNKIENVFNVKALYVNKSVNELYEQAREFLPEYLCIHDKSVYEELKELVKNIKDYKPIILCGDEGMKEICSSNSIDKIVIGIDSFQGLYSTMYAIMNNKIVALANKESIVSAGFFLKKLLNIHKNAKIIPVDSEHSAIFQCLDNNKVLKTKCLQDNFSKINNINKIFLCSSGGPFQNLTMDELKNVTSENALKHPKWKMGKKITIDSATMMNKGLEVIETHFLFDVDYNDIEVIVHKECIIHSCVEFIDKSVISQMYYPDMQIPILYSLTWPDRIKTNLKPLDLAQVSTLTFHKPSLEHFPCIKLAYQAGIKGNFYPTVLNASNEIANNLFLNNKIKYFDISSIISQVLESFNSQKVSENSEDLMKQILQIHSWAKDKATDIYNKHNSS
Conditions: background statement; cited from earlier work.

Assay [2] addresses T1, P. falciparum DXR. The assay can be described thus: Plasmodium falciparum DXR enzyme IC50. The format is biochemical. The protocol:
Recombinant protein was expressed in Escherichia coli Rosetta2(DE3) cells obtained from Novagen (San Diego, CA). E. coli was cultured at 37° C. in Luria-Bertani (LB) media supplemented with 100 μg/mL ampicillin and 34 μg/ml chloramphenicol with constant shaking at 250 rpm. Agar (1.5% wt/vol) was added to prepare solid media.
Cloning. Expression, and Purification of P falciparum DXR
The P falciparum dxr gene was truncated to begin at Lys 75 to remove the apicoplast signaling sequence. A Pf 3D7 trophozoite cDNA library (MRA-297) was acquired from BEi resources and used as the template for amplification of the PIDXR gene. […] 3′ reverse and cloned into a pETl 00/D-TOPO vector to yield pPIDXR, facilitating the expression of an N-terminal His6-tagged protein.
The expression plasmid (pPIDXR) was separately transformed into chemically competent E. coli Rosetta2(DE3) cells for protein expression. To express the His-tagged protein, a 10 mL overnight seed culture was added to IL of LB media and then incubated with shaking at 37° C. and 250 rpm. At an OD600 of 1.8, protein expression was induced with addition of isopropyl b-D-thiogalactopyranoside (IPTG) to 0.5 mM and the culture was further incubated with shaking at 37° C. and 250 rpm for an additional 18 hours. Cells were harvested via centrifugation (4648×g, 20 min, 4° C.) and stored at −80° C. Protein was subsequently isolated and purified from the cells via chemical lysis and affinity chromatography.
Cells were lysed with lysis buffer A (100 mM Tris pH 8.0, 0.032% lysozyme, 3 mL per gram cell pellet), followed by lysis buffer B (0.1 M CaCh, 0.1 M MgCh, 0.1 M NaCl, 0.020% DNase, 0.3 mL per gram cell pellet).
The column was washed with 20 column volumes of Ix equilibrium buffer (50 mM HEPES pH 7.5, 300 mM NaCl), 10 column volumes of Ix wash buffer (50 mM HEPES pH 7.5, 300 mM NaCl, 10 mM imidazole), and 15 column volumes of 2× wash buffer (100 mM HEPES pH 7.5, 600 mM NaCl, 20 mM imidazole). The protein was eluted with 5 column volumes of Ix elution buffer (150 mM imidazole pH 7.0, 300 mM NaCl). Buffer was exchanged with 0.1 M Tris pH 7.5, I mM NaCl, 5 mM DTT during concentration by ultrafiltration. Protein concentration was determined using Advanced Protein Assay Reagent (Cytoskeleton, Denver CO) with y-globulins (Sigma-Aldrich) as the standard. Purified protein was visualized via Coomassie stained SDS-PAGE.

The mark [3] stands for this setting: whole cell, read-out: P. f. IC50.
[4] abbreviates: recombinant His-tagged enzyme, read-out: P. f. DXR IC50.
The mark [5] stands for this setting: Plasmodium falciparum, 3D7, read-out: P. f. IC50.

In general, IC50 refers to the midpoint of a concentration-inhibition curve. Turning to `CC(=O)N(O)C/C=C/P(=O)(OCOC(=O)c1ccccc1)OCOC(=O)c1ccccc1` [BOM, CH3], the IC50 with P falciparum strain 3D7 (setting [3]) was found to be 11 nM.
Regarding `O=CN(O)C/C=C/P(=O)(OCOC(=O)c1ccccc1)OCOC(=O)c1ccccc1` [BOM, H], in the assay with P falciparum strain 3D7 (setting [3]), the IC50 was 42 nM.
Take `O=C(OCOP(=O)(/C=C/CN(O)C(=O)c1ccccc1)OCOC(=O)c1ccccc1)c1ccccc1` [BOM, phenyl, [({[(E)-benzoyloxy]methoxy}[(1E)-3-(N-hydroxy-1-phenylformamido)prop-1-en-1-yl]phosphoryl)oxy]methyl benzoate]: in the assay with P falciparum strain 3D7 (setting [3]), the IC50 was 297 nM.
`CC(=O)N(O)CCCP(=O)(O)O` [FR900098]: the IC50 on P. falciparum DXR [1] was 24 nM.
Turning to `O=C(c1ccc(Cl)c(Cl)c1)N(O)C/C=C/P(=O)(O)O` [NH4,3,4-dichlorophenyl], the IC50 with P falciparum strain 3D7 (setting [3]) amounted to 129 nM.
As for `O=C(c1cc(Cl)cc(Cl)c1)N(O)C/C=C/P(=O)(O)O` [NH4,3,5-dichlorophenyl], the IC50 in the assay on P falciparum strain 3D7 (setting [3]) is 218 nM.
As for `O=C(c1cccc(Cl)c1)N(O)C/C=C/P(=O)(O)O` [NH4,3-chlorophenyl], the IC50 with P falciparum strain 3D7 (setting [3]) came to 116 nM.
Regarding `O=C(c1cccc(F)c1)N(O)C/C=C/P(=O)(O)O` [NH4,3-fluorophenyl], the IC50 in the assay with P falciparum strain 3D7 (setting [3]) turned out to be 352 nM.
Regarding `O=C(c1cccc(C(F)(F)F)c1)N(O)C/C=C/P(=O)(O)O` [NH4,3-trifluoromethylphenyl], at P. falciparum DXR [2] (setting [4]), the half-maximal inhibitory concentration (IC50) turned out to be 49 nM.
With `O=C(c1ccc(F)cc1)N(O)C/C=C/P(=O)(O)O` [NH4,4-fluorophenyl], the results for the IC50 in the assay on P falciparum strain 3D7 (setting [3]) and on P. falciparum DXR [2] (setting [4]) were 173 nM and 38 nM, respectively.
In the case of `COc1ccc(C(=O)N(O)C/C=C/P(=O)(O)O)cc1` [NH4,4-methoxyphenyl], the half-inhibitory concentration (IC50) in the assay on P falciparum strain 3D7 (setting [3]) amounted to 632 nM.
Take `O=C(c1ccncc1)N(O)C/C=C/P(=O)(O)O` [NH4,4-pyridinyl]: in the assay with P falciparum strain 3D7 (setting [3]), the IC50 came to 5390 nM.
Turning to `O=C(c1ccccc1)N(O)C/C=C/P(=O)(O)O` [NH4, phenyl, Diammonium [(1E)-3-(N-hydroxy-1-phenylformamido)prop-1-en-1-yl]phosphonate], the IC50 in the assay on P falciparum strain 3D7 (setting [5]) is 273 nM; on P. falciparum DXR [2] it was 81 nM.
As to `O=C(c1cccc2ccccc12)N(O)C/C=C/P(=O)(O)O` [Na/H, 1-naphthyl], the IC50 in the assay with P falciparum strain 3D7 (setting [3]) came to 5480 nM; at P. falciparum DXR [2] (setting [4]), 1800 nM.
In the same order, the values of `O=C(c1ccc2ccccc2c1)N(O)C/C=C/P(=O)(O)O` [Na/H, 2-naphthyl] are 1620 nM and 471 nM.
Consider `O=C(c1cc(Cl)cc(Cl)c1)N(O)C/C=C/P(=O)(O)O` [Na/H, 3,5-dichlorophenyl, Sodium hydrogen [(1E)-3-[1-(3,5-dichlorophenyl)—N-hydroxyformamido]prop-1-en-1-yl]phosphonate], for which the IC50 with P falciparum strain 3D7 (setting [5]) came out at 170 nM; against P. falciparum DXR [2], 64 nM.
For the compound `O=C(c1cccc(Cl)c1)N(O)C/C=C/P(=O)(O)O` [Na/H, 3-chlorophenyl], the IC50 with P falciparum strain 3D7 (setting [3]) came to 279 nM; at P. falciparum DXR [2] (setting [4]), 158 nM.
For the compound `O=C(c1cccc(C(F)(F)F)c1)N(O)C/C=C/P(=O)(O)O` [Na/H, 3-trifluoromethylphenyl], the concentration for half-maximal inhibition (IC50) in the assay on P falciparum strain 3D7 (setting [3]) was 188 nM; at P. falciparum DXR [2] (setting [4]), 48 nM.
For the compound `O=C(c1ccc(-c2ccccc2)cc1)N(O)C/C=C/P(=O)(O)O` [Na/H, 4-biphenyl], the IC50 in the assay on P falciparum strain 3D7 (setting [3]) worked out at 4380 nM; on P. falciparum DXR [2] (setting [4]), 290 nM.
Take `O=C(c1ccc(F)cc1)N(O)C/C=C/P(=O)(O)O` [Na/H, 4-fluorophenyl]: the IC50 worked out at 121 nM in the assay on P falciparum strain 3D7 (setting [3]) and 41 nM on P. falciparum DXR [2] (setting [4]).
In the same order, the values of `Cc1ccc(C(=O)N(O)C/C=C/P(=O)(O)O)cc1` [Na/H, 4-methylphenyl] are 1390 nM and 164 nM.
`O=C(c1ccncc1)N(O)C/C=C/P(=O)(O)O` [Na/H, 4-pyridinyl]: the values for the IC50 in the assay on P falciparum strain 3D7 (setting [3]) and on P. falciparum DXR [2] (setting [4]) were 6520 nM and 519 nM, respectively.
In the case of `CC(C)(C)c1ccc(C(=O)N(O)C/C=C/P(=O)(O)O)cc1` [Na/H, 4-t-butylphenyl], the figures for the half-maximal inhibitory concentration (IC50) in the assay on P falciparum strain 3D7 (setting [3]) and on P. falciparum DXR [2] (setting [4]) were 43700 nM and 37900 nM, respectively.
Regarding `O=C(c1ccc(C(F)(F)F)cc1)N(O)C/C=C/P(=O)(O)O` [Na/H, 4-trifluoromethylphenyl], the half-maximal inhibitory concentration (IC50) is 2500 nM with P falciparum strain 3D7 (setting [3]) and 146 nM on P. falciparum DXR [2] (setting [4]).
Consider `CC(=O)N(O)C/C=C/P(=O)(OCOC(=O)C(C)(C)C)OCOC(=O)C(C)(C)C` [POM, CH3], for which the IC50 in the assay on P falciparum strain 3D7 (setting [3]) was 18 nM.
As to `CC(C)(C)C(=O)OCOP(=O)(/C=C/CN(O)C=O)OCOC(=O)C(C)(C)C` [POM, H], in the assay on P falciparum strain 3D7 (setting [3]), the half-maximal inhibitory concentration (IC50) came to 13 nM.
`CC(C)(C)C(=O)OCOP(=O)(C/C=C/N(O)C(=O)c1ccccc1)OCOC(=O)C(C)(C)C` [POM, phenyl, (E)-(((3-(N-hydroxybenzamido)allyl)phosphoryl)bis(oxy))bis(methylene)bis(2,2-dimethylpropanoate)]: the half-maximal inhibitory concentration (IC50) in the assay with P falciparum strain 3D7 (setting [3]) was 200 nM.

Source of the values: US20240239821A1, “N-ACYL FOSMIDOMYCIN PRODRUG ANALOGS AS NOVEL ANTIINFECTIVE AGENTS” (THE GEORGE WASHINGTON UNIVERSITY, priority 2021, published 2024).
